Patent US20130217060A1 (Butamax(TM) Advanced Biofuels LLC, priority 2007, published 2013)
Like-named read-outs stand apart in the source and are kept apart here.

Columns and labels:
[1] = biological target: 3-hydroxybutyryl-CoA dehydrogenase (Clostridium acetobutylicum, UniProt P52041); assay: Hydroxybutyryl-CoA dehydrogenase activity (NADH oxidation, 340 nm); conditions: induced E. coli BL21-AI culture, one typical assay
E. coli strain BW25113 = assay: Survival of E. coli after 30 min MEK shock (colony counts); type: cell-based, Escherichia coli; conditions: for % Survival at 28° C. / % Survival at 37° C.: average of duplicate experiments
acetoacetyl-CoA thiolase = assay: Acetoacetyl-CoA thiolase activity in cell free extracts (absorbance 303 nm); conditions: cell free extract of arabinose-induced E. coli BL21-AI culture, one typical assay
[2] = test system: Lactobacillus plantarum PN0512; assay: Growth of L. plantarum PN0512 in the presence of butanols at different temperatures (OD600 for six hours); type: cell-based; parameters: key to Growth in the presence of 1-butanol / Growth in the presence of isobutanol / Growth in the presence of 2-butanol: “+” = growth observed as an increase in OD600.; “−” = no growth observed, i.e. no change in OD600
[3] = test system: Saccharomyces cerevisiae BY4741; conditions: for % Growth Inhibition: six hours
Description: Tolerance levels were determined for yeast strain Saccharomyces cerevisiae BY4741 (described in Example 21) at 25° C. and 30° C. as follows. The strain was cultured in YPD medium. Overnight cultures in the absence of any test compound were started in 25 mL of YPD medium in 150 mL flasks with incubation at 30° C. or at 25° C. in shaking water baths. The next morning, each overnight culture was diluted into a 500 mL flask-containing 300 mL of fresh medium to an initial OD600 of about 0.1. The flasks were incubated in shaking water baths at 30° C. or 25° C., using the same temperature as used for each overnight culture. […] The ΔOD600 was calculated by subtracting the initial OD600 from the final OD600 at 6 hours. The percent growth inhibition relative to the control culture was calculated as follows: % Growth Inhibition=100−[100(Sample ΔOD600/Control ΔOD600)].

butanol dehydrogenase = assay: Butanol dehydrogenase activity (NADH oxidation, 340 nm); type: biochemical, Clostridium acetobutylicum; conditions: induced E. coli BL21-AI culture, one typical assay
crotonase = biological target: T1, crotonase (Clostridium acetobutylicum, UniProt P52046); assay: Crotonase activity assay (Stern); type: biochemical; conditions: induced E. coli BL21-AI culture, one typical assay
T1 construct: made in house; host or cells: E. coli BL21-AI (pDEST14crt); S. cerevisiae BY4741 (pNY11) and BY4743 (pNY103)
Description: Crotonase activity was assayed as described by Stern (Methods Enzymol. 1, 559-566, (1954)).
Enzyme assays were performed as described above.

3-hydroxybutyryl-CoA dehydrogenase, sequence (P52041 whole entry): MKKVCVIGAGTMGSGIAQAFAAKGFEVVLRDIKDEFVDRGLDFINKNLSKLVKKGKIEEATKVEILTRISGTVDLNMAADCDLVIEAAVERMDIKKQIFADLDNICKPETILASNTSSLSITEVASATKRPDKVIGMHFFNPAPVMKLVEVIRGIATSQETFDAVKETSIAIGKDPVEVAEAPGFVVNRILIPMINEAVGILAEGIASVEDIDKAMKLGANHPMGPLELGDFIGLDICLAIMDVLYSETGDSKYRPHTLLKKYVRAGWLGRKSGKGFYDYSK

BHBD protein: 3-hydroxybutyryl-CoA dehydrogenase (SEQ ID NO:6) from C. acetobutylicum ATCC 824 expressed in E. coli
specific activity (hydroxybutyryl-CoA dehydrogenase) [1]: 57.4 µmol/mg/min

CCC(C)=O [MEK, 2-butanone]
% Survival at 28° C. (E. coli strain BW25113; MEK 4 % w/v): 100%
% Survival at 37° C. (E. coli strain BW25113; MEK 4 % w/v): 100%
% Survival at 28° C. (E. coli strain BW25113; MEK 6 % w/v): 100%
% Survival at 37° C. (E. coli strain BW25113; MEK 6 % w/v): 0%
% Survival at 28° C. (E. coli strain BW25113; MEK 8 % w/v): 0.002%
% Survival at 37° C. (E. coli strain BW25113; MEK 8 % w/v): 0%
concentration with full survival (E. coli strain BW25113; exposure at 28° C.): 6 % w/v
concentration with full survival (E. coli strain BW25113; exposure at 37° C.): 4 % w/v
concentration with no survival (E. coli strain BW25113; exposure at 37° C.): 6 % w/v

ThIA protein: acetoacetyl-CoA thiolase (SEQ ID NO:2) from C. acetobutylicum ATCC 824 expressed in E. coli
specific activity (acetoacetyl-CoA thiolase) (acetoacetyl-CoA thiolase): 16.0 µmol/mg/min

CCC(C)O (centres unmarked) [2-butanol]
Growth in the presence of 2-butanol ([2]; 1.8 % w/v, 37° C.): +
Growth in the presence of 2-butanol ([2]; 2.1 % w/v, 37° C.): +
Growth in the presence of 2-butanol ([2]; 2.9 % w/v, 25° C.): +
Growth in the presence of 2-butanol ([2]; 2.9 % w/v, 30° C.): +
Growth in the presence of 2-butanol ([2]; 2.9 % w/v, 37° C.): +
Growth in the presence of 2-butanol ([2]; 3.1 % w/v, 37° C.): +
Growth in the presence of 2-butanol ([2]; 3.6 % w/v, 37° C.): +
Growth in the presence of 2-butanol ([2]; 3.8 % w/v, 25° C.): +
Growth in the presence of 2-butanol ([2]; 3.8 % w/v, 30° C.): +
Growth in the presence of 2-butanol ([2]; 3.8 % w/v, 37° C.): +
Growth in the presence of 2-butanol ([2]; 4.0 % w/v, 30° C.): +
Growth in the presence of 2-butanol ([2]; 4.3 % w/v, 25° C.): +
Growth in the presence of 2-butanol ([2]; 4.3 % w/v, 30° C.): +
Growth in the presence of 2-butanol ([2]; 4.3 % w/v, 37° C.): +
Growth in the presence of 2-butanol ([2]; 4.7 % w/v, 25° C.): +
Growth in the presence of 2-butanol ([2]; 4.7 % w/v, 30° C.): +
Growth in the presence of 2-butanol ([2]; 4.7 % w/v, 37° C.): −
Growth in the presence of 2-butanol ([2]; 4.9 % w/v, 25° C.): +
Growth in the presence of 2-butanol ([2]; 4.9 % w/v, 30° C.): −
Growth in the presence of 2-butanol ([2]; 5.2 % w/v, 25° C.): +
Growth in the presence of 2-butanol ([2]; 5.2 % w/v, 37° C.): −
Growth in the presence of 2-butanol ([2]; 5.6 % w/v, 25° C.): −
Growth in the presence of 2-butanol ([2]; 5.6 % w/v, 37° C.): −
Growth in the presence of 2-butanol ([2]; 6.0 % w/v, 37° C.): −
Growth in the presence of 2-butanol ([2]; 6.4 % w/v, 37° C.): −
Growth in the presence of 2-butanol ([2]; 7.3 % w/v, 37° C.): −
concentration in which growth was observed ([2]; 25° C.): 5.2%
concentration in which growth was not observed ([2]; 30° C.): 4.9%
concentration in which growth was observed ([2]; 30° C.): 4.7%
concentration in which growth was not observed ([2]; 37° C.): 4.5%
concentration in which growth was observed ([2]; 37° C.): 4.3%
Growth in the presence of 2-butanol ([2]; […] w/v, 30° C.): +

1-butanol
Growth in the presence of 1-butanol ([2]; 1.0 % w/v, 37° C.): +
Growth in the presence of 1-butanol ([2]; 1.2 % w/v, 37° C.): +
Growth in the presence of 1-butanol ([2]; 1.4 % w/v, 37° C.): +
Growth in the presence of 1-butanol ([2]; 1.5 % w/v, 25° C.): +
Growth in the presence of 1-butanol ([2]; 1.5 % w/v, 30° C.): +
Growth in the presence of 1-butanol ([2]; 1.5 % w/v, 37° C.): +
Growth in the presence of 1-butanol ([2]; 1.6 % w/v, 37° C.): +
Growth in the presence of 1-butanol ([2]; 1.8 % w/v, 37° C.): +
Growth in the presence of 1-butanol ([2]; 2.0 % w/v, 25° C.): +
Growth in the presence of 1-butanol ([2]; 2.0 % w/v, 30° C.): +
Growth in the presence of 1-butanol ([2]; 2.0 % w/v, 37° C.): +
Growth in the presence of 1-butanol ([2]; 2.1 % w/v, 37° C.): +
Growth in the presence of 1-butanol ([2]; 2.2 % w/v, 37° C.): +
Growth in the presence of 1-butanol ([2]; 2.3 % w/v, 37° C.): +
Growth in the presence of 1-butanol ([2]; 2.4 % w/v, 25° C.): +
Growth in the presence of 1-butanol ([2]; 2.4 % w/v, 30° C.): +
Growth in the presence of 1-butanol ([2]; 2.4 % w/v, 37° C.): −
Growth in the presence of 1-butanol ([2]; 2.7 % w/v, 30° C.): +
Growth in the presence of 1-butanol ([2]; 2.7 % w/v, 37° C.): −
Growth in the presence of 1-butanol ([2]; 2.9 % w/v, 25° C.): +
Growth in the presence of 1-butanol ([2]; 2.9 % w/v, 30° C.): −
Growth in the presence of 1-butanol ([2]; 2.9 % w/v, 37° C.): −
Growth in the presence of 1-butanol ([2]; 3.1 % w/v, 25° C.): +
Growth in the presence of 1-butanol ([2]; 3.1 % w/v, 30° C.): −
Growth in the presence of 1-butanol ([2]; 3.1 % w/v, 37° C.): −
Growth in the presence of 1-butanol ([2]; 3.2 % w/v, 25° C.): −
Growth in the presence of 1-butanol ([2]; 3.2 % w/v, 30° C.): −
Growth in the presence of 1-butanol ([2]; 3.3 % w/v, 25° C.): −
Growth in the presence of 1-butanol ([2]; 3.4 % w/v, 25° C.): −
Growth in the presence of 1-butanol ([2]; 3.4 % w/v, 30° C.): −
concentration in which growth was observed ([2]; 25° C.): 3.1%
concentration in which growth was not observed ([2]; 30° C.): 2.9%
concentration in which growth was observed ([2]; 30° C.): 2.7%
concentration in which growth was not observed ([2]; 37° C.): 2.4%
concentration in which growth was observed ([2]; 37° C.): 2.3%
Growth in the presence of 1-butanol ([2]; […] w/v, 37° C.): −
growth inhibition of strain BY4741 at 25° C. compared with 30° C. ([3]; 1% 1-butanol): less inhibited
% Growth Inhibition ([3]; 1% 1-butanol, 25° C.): 43%
% Growth Inhibition ([3]; 1% 1-butanol, 30° C.): 64%
% Growth Inhibition ([3]; 2% 1-butanol, 25° C.): No growth
% Growth Inhibition ([3]; 2% 1-butanol, 30° C.): No growth

CC(C)CO [isobutanol]
Growth in the presence of isobutanol ([2]; 3.3 % w/v, 30° C.): −

ThIB protein: acetoacetyl-CoA thiolase (SEQ ID NO:4) from C. acetobutylicum ATCC 824 expressed in E. coli
specific activity (acetoacetyl-CoA thiolase) (acetoacetyl-CoA thiolase): 14.9 µmol/mg/min

B1: BdhB protein: butanol dehydrogenase (SEQ ID NO:14) from C. acetobutylicum ATCC 824 expressed in E. coli (protein, listed as Clostridium acetobutylicum)
chain: MVDFEYSIPTRIFFGKDKINVLGRELKKYGSKVLIVYGGGSIKRNGIYDKAVSILEKNSIKFYELAGVEPNPRVTTVEKGVKICRENGVEVVLAIGGGSAIDCAKVIAAACEYDGNPWDIVLDGSKIKRVLPIASILTIAATGSEMDTWAVINNMDTNEKLIAAHPDMAPKFSILDPTYTYTVPTNQTAAGTADIMSHIFEVYFSNTKTAYLQDRMAEALLRTCIKYGGIALEKPDDYEARANLMWASSLAINGLLTYGKDTNWSVHLMEHELSAYYDITHGVGLAILTPNWMEYILNNDTVYKFVEYGVNVWGIDKEKNHYDIAHQAIQKTRDYFVNVLGLPSRLRDVGIEEEKLDIMAKESVKLTGGTIGNLRPVNASEVLQIFKKSV
specific activity (butanol dehydrogenase) (butanol dehydrogenase): 0.169 µmol/mg/min

B2: crotonase protein: crotonase (SEQ ID NO:8) from C. acetobutylicum ATCC 824 expressed in E. coli (protein, listed as Clostridium acetobutylicum)
chain: MELNNVILEKEGKVAVVTINRPKALNALNSDTLKEMDYVIGEIENDSEVLAVILTGAGEKSFVAGADISEMKEMNTIEGRKFGILGNKVFRRLELLEKPVIAAVNGFALGGGCEIAMSCDIRIASSNARFGQPEVGLGITPGFGGTQRLSRLVGMGMAKQLIFTAQNIKADEALRIGLVNKVVEPSELMNTAKEIANKIVSNAPVAVKLSKQAINRGMQCDIDTALAFESEAFGECFSTEDQKDAMTAFIEKRKIEGFKNR
specific activity (crotonase) (crotonase): 444 µmol/mg/min

B3: BdhA protein: butanol dehydrogenase (SEQ ID NO:16) from C. acetobutylicum 824 expressed in E. coli (protein, listed as Clostridium acetobutylicum)
chain: MLSFDYSIPTKVFFGKGKIDVIGEEIKKYGSRVLIVYGGGSIKRNGIYDRATAILKENNIAFYELSGVEPNPRITTVKKGIEICRENNVDLVLAIGGGSAIDCSKVIAAGVYYDGDTWDMVKDPSKITKVLPIASILTLSATGSEMDQIAVISNMETNEKLGVGHDDMRPKFSVLDPTYTFTVPKNQTAAGTADIMSHTFESYFSGVEGAYVQDGIAEAILRTCIKYGKIAMEKTDDYEARANLMWASSLAINGLLSLGKDRKWSCHPMEHELSAYYDITHGVGLAILTPNWMEYILNDDTLHKFVSYGINVWGIDKNKDNYEIAREAIKNTREYFNSLGIPSKLREVGIGKDKLELMAKQAVRNSGGTIGSLRPINAEDVLEIFKKSY
specific activity (butanol dehydrogenase) (butanol dehydrogenase): 0.102 µmol/mg/min
